# Measured values reported in ChEMBL document CHEMBL5380876, “Non-fused imidazole-biphenyl analogs repress triple-negative breast cancer growth by mainly stabilizing the c-MYC G-quadruplex via a multi-site binding mode” (Bioorg Med Chem, 2023).
# Active and inactive are the calls of the source. No cut-off for these calls is given here.
# How the values were obtained:
# A549 = test: Cytotoxicity against human A549 cells assessed as reduction in cell viability by CCK8 assay; format: functional, cell-based
# HCC1806 = test: Cytotoxicity against human HCC1806 cells assessed as reduction in cell viability by CCK8 assay; format: functional, cell-based
# KYSE-30 = test: Cytotoxicity against human KYSE-30 cells assessed as reduction in cell viability by CCK8 assay; format: functional, cell-based
# [1] = Cytotoxicity against human MCF-10A cells assessed as reduction in cell viability by CCK8 assay; format: toxicity, cell-based
# Quadruplex DNA [2] = test: Binding affinity to c-MYC G4 quadraplex DNA (unknown origin) assessed as dissociation constant by fluorescence titration based analysis; format: nucleic-acid assay
# Quadruplex DNA [3] = test: Stabilization of c-MYC G4 quadruplex DNA (unknown origin) assessed as change in temperature incubated for 2 hrs in presence of KRAS by FRET assay; format: nucleic-acid assay
# Quadruplex DNA [4] = test: Stabilization of c-MYC G4 quadruplex DNA (unknown origin) assessed as change in temperature incubated for 2 hrs in presence of HRAS by FRET assay; format: nucleic-acid assay
# Quadruplex DNA [5] = test: Stabilization of c-MYC G4 quadruplex DNA (unknown origin) assessed as change in temperature incubated for 2 hrs in presence of duplex DNA by FRET assay; format: nucleic-acid assay
# MDA-MB-231 [6] = test: Downregulation of c-MYC expression in human MDA-MB-231 cells measured after 24 hrs by RT-PCR analysis; format: functional, cell-based; conditions: dose 1-4 µM
# MDA-MB-231 [7] = test: Upregulation of phosphorylated ATM in human MDA-MB-231 cells at 1 to 4 uM measured after 24 hrs by Western blot analysis; format: functional, cell-based; conditions: dose 1-4 µM
# MDA-MB-231 [8] = test: Upregulation of phosphorylated Chk2 in human MDA-MB-231 cells at 1 to 4 uM measured after 24 hrs by Western blot analysis; format: functional, cell-based; conditions: dose 1-4 µM
# MDA-MB-231 [9] = test: Induction of cell cycle arrest in human MDA-MB-231 cells assessed as accumulation of cells at sub-G1 phase at 1 uM incubated for 24 hrs by propidium iodide staining based flow cytometry analysis (reference value: 0.57%); format: functional
# MDA-MB-231 [10] = test: Induction of cell cycle arrest in human MDA-MB-231 cells assessed as accumulation of cells at G0/G1 phase at 1 uM incubated for 24 hrs by propidium iodide staining based flow cytometry analysis (reference value: 66.35%); format: functional
# MDA-MB-231 [11] = test: Induction of cell cycle arrest in human MDA-MB-231 cells assessed as accumulation of cells at G2/M phase at 1 uM incubated for 24 hrs by propidium iodide staining based flow cytometry analysis (reference value: 17.58%); format: functional
# MDA-MB-231 [12] = test: Induction of cell cycle arrest in human MDA-MB-231 cells assessed as accumulation of cells at S phase at 2 uM incubated for 24 hrs by propidium iodide staining based flow cytometry analysis (reference value: 15.50%); format: functional
# MDA-MB-231 [13] = test: Induction of cell cycle arrest in human MDA-MB-231 cells assessed as accumulation of cells at sub-G1 phase at 4 uM incubated for 24 hrs by propidium iodide staining based flow cytometry analysis (reference value: 0.57%); format: functional
# MDA-MB-231 [14] = test: Induction of cell cycle arrest in human MDA-MB-231 cells assessed as accumulation of cells at G0/G1 phase at 4 uM incubated for 24 hrs by propidium iodide staining based flow cytometry analysis (reference value: 66.35%); format: functional
# MDA-MB-231 [15] = test: Induction of cell cycle arrest in human MDA-MB-231 cells assessed as upregulation of p21 accumulation at 1 to 4 uM measured after 24 hrs by Western blot analysis; format: functional, cell-based; conditions: dose 1-4 µM
# MDA-MB-231 [16] = test: Induction of cell cycle arrest in human MDA-MB-231 cells assessed as downregulation of cyclin B expression at 1 to 4 uM incubated for 24 hrs by Western blot analysis; format: functional, cell-based; conditions: dose 1-4 µM
# MDA-MB-231 [17] = test: Induction of apoptosis in human MDA-MB-231 cells assessed as increase in early apoptotic cells at 1 to 4 uM incubated for 24 hrs by Annexin-V FITC/PI double staining based flow cytometry analysis; format: functional, cell-based; conditions: dose 1-4 µM
# MDA-MB-231 [18] = test: Induction of autophagy in human MDA-MB-231 cells assessed as conversion of LC3B-I to LC3B-II at 1 to 4 uM incubated for 24 hrs by Western blot analysis; format: functional, cell-based; conditions: dose 1-4 µM
# MDA-MB-231 [19] = test: Cytotoxicity against human MDA-MB-231 cells assessed as inhibition of cell growth at 0 to 20 uM incubated for 48 hrs by CCK-8 assay; format: functional, cell-based; conditions: MDA-MB-231, 48 h
# MDA-MB-231 [20] = test: Cytotoxicity against human MDA-MB-231 cells assessed as inhibition of cell growth at 0 to 20 uM incubated for 72 hrs by CCK-8 assay; format: functional, cell-based; conditions: MDA-MB-231, 72 h
# MDA-MB-231 [21] = test: Inhibition of colony formation in human MDA-MB-231 cells assessed as reduction in number of visible cell colonies at 0.1 to 0.4 uM measured after 14 days by crystal violet based staining analysis; format: functional; conditions: dose 0.1-0.4 µM, time 14.0 day
# MDA-MB-231 [22] = test: Inhibition of cell migration in human MDA-MB-231 cells assessed as reduction in migration at 1 to 4 uM measured after 24 hrs by transwell migration assay; format: functional, cell-based; conditions: dose 1-4 µM
# MDA-MB-231 [23] = test: Antitumor activity against human MDA-MB-231 cells xenografted in BALB/c nude mouse assessed as reduction in tumor volume at 5 mg/kg, ip administered every other day for 20 days and measured every 4 days; format: functional, organism-based; conditions: time 20.0 day
# [24] = Toxicity in BALB/c mouse xenografted with human MDA-MB-231 cells assessed as discomfort at 5 mg/kg, ip administered every other day for 20 days and measured every 4 days; format: organism-based; conditions: in vivo, 480 h, time 20 day
# [25] = Toxicity in BALB/c mouse xenografted with human MDA-MB-231 cells assessed as effect on spleen at 5 mg/kg, ip administered every other day for 20 days and measured every 4 days; format: organism-based; conditions: in vivo, 480 h, time 20 day
# [26] = Toxicity in BALB/c mouse xenografted with human MDA-MB-231 cells assessed as effect on kidney at 5 mg/kg, ip administered every other day for 20 days and measured every 4 days; format: organism-based; conditions: in vivo, 480 h, time 20 day
# MDA-MB-231 [27] = test: Antitumor activity against human MDA-MB-231 cells xenografted in BALB/c mouse assessed as reduction in c-MYC expression at 5 mg/kg, ip administered every other day for 20 days and measured every 4 days by immunohistochemistry analysis; format: functional, organism-based; conditions: time 20.0 day
# [28] = Toxicity in BALB/c mouse xenografted with human MDA-MB-231 cells assessed as pain at 5 mg/kg, ip administered every other day for 20 days and measured every 4 days; format: organism-based; conditions: in vivo, 480 h, time 20 day
# dsDNA = test: Stabilization of duplex DNA (unknown origin) assessed as change in melting temperature by circular dichroism melting assay
# Quadruplex DNA [29] = test: Stabilization of G4 quadruplex telomeric22 DNA (unknown origin) assessed as change in melting temperature by circular dichroism melting assay
compound,measurement,setting,value
CN1CCN(c2ccc(-c3nc(-c4ccc(-c5ccc(C(F)(F)F)cc5)cc4)[nH]c3-c3ccc(N4CCN(C)CC4)cc3)cc2)CC1,IC50,A549,1260 nM
same,IC50,HCC1806,1490 nM
same,IC50,KYSE-30,1310 nM
same,IC50,[1],8770 nM
same,Kd,Quadruplex DNA [2],2700 nM
same,Activity,Quadruplex DNA [3],Active
same,Activity,Quadruplex DNA [4],Active
same,Activity,Quadruplex DNA [5],Active
same,Activity,MDA-MB-231 [6],Dose-Dependent Effect
same,Activity,MDA-MB-231 [7],Active
same,Activity,MDA-MB-231 [8],Active
same,Activity,MDA-MB-231 [9],0.66%
same,Activity,MDA-MB-231 [10],74.71%
same,Activity,MDA-MB-231 [11],13.49%
same,Activity,MDA-MB-231 [12],11.56%
same,Activity,MDA-MB-231 [13],44.98%
same,Activity,MDA-MB-231 [14],18.23%
same,Activity,MDA-MB-231 [15],Active
same,Activity,MDA-MB-231 [16],Active
same,Activity,MDA-MB-231 [17],Active
same,Activity,MDA-MB-231 [18],Active
same,IC50,MDA-MB-231 [19],870 nM
same,IC50,MDA-MB-231 [20],660 nM
same,inhibition,MDA-MB-231 [21],Active
same,inhibition,MDA-MB-231 [22],Active
same,Activity,MDA-MB-231 [23],Active
same,Activity,[24],Non-Toxic
same,Activity,[25],Non-Toxic
same,Activity,[26],Non-Toxic
same,Activity,MDA-MB-231 [27],Active
same,Activity,[28],Non-Toxic
same,ΔTm,dsDNA,0 °C
same,ΔTm,Quadruplex DNA [29],0 °C
